{"source": "patent US7026514B2", "about": "“Compounds used to treat alcoholism” (Garbil Pharma Investigacion Chile Ltda., priority 2001, dated 2006)", "key": {"[1]": {"system": "metabolism of acetaldehyde", "assay": "Assessment of disulfiram-like adverse effect (blood acetaldehyde after ethanol, gas chromatography)", "assay_type": "in vivo, Wistar male rats", "method": "The possible disulfiram-like adverse effect of N,N′-bis(3-aminopropyl)cyclohexane-1,4-diamine tetramethanesulfonate monohydrate was studied by gas-chromatographic measurements of the blood concentration of acetaldehyde in standard Wistar male rats, after the intraperitoneal administration of 2.76 g/kg of ethanol in the form of 10% (v/v) aqueous solution. Blood samples were taken from the tail (0.5, 1.0 and 2.0 h after ethanol administration) and from the suprahepatic vein (2.0 h after ethanol administration)."}, "[2]": {"system": "genetically-alcoholic rats, UChB strain", "assay": "Anti-alcoholism activity during a prolonged treatment period (30 days)", "assay_type": "in vivo, Wistar rats", "settings": "40 mg/kg, treatment period of 30 days", "description": "(§1) As an animal model of alcoholic mammals, including human beings, adult Wistar rats of both sexes, belonging to the UChB strain were used. This strain of rats is the result of a long selection at the University of Chile, and rats belonging to it are known to be volunteer consumers of 10% (v/v) aqueous alcohol (cf. J. Mardones and N. Segovia-Riquelme, “Thirty two years of selection of rats by ethanol preference”: UChA and UChB strains”, Neurobehav. Toxicol. and Teratol. 1983, vol. 5, pp. 171–178). Thus, the rats used in these experiments can be considered genetically alcoholic.\nRats were kept in individual cages at 22° C., with alternative 12 h periods of light and darkness. […] All experiments were double-blind, and results were analyzed using common statistical methods. As changes in alcohol consumption might be influenced by the eagerness of food and/or water intake, both the consumption of food and of water were measured and analyzed. […]\n(§2) The effect of the administration of N,N′-bis(3-aminopropyl)-cyclohexane-1,4-diamine tetramethanesulfonate monohydrate to Wistar rats of both sexes belonging to the UChB strain, at a dose of 40 mg/kg during a treatment period of 30 days, was assessed in an experiment analogous to the one of Example 4. Individual consumptions of alcohol and water, measured daily, were grouped in cycles of 3 consecutive days, thus reducing data to ten average values."}, "[3]": {"system": "genetically-alcoholic rats, UChB strain", "assay": "Anti-alcoholism activity during a post-treatment period (27 days)", "assay_type": "in vivo, Wistar rats", "settings": "27 days after the 30-day treatment at 40 mg/kg", "method": "as §2\nThe effect of the administration of N,N′-bis(3-aminopropyl)-cyclohexane-1,4-diamine tetramethanesulfonate monohydrate to Wistar rats of both sexes belonging to the UChB strain, during a post-treatment period of 27 days (9 cycles of 3 days) after the prolonged treatment of Example 5, was assessed in an analogous experiment. […] Therefore, the effect of N,N′-bis(3-aminopropyl)-cyclohexane-1,4-diamine tetramethanesulfonate monohydrate lasts substantially for a long time after a prolonged treatment, without recovering the initial levels of alcohol/water consumption."}, "[4]": {"system": "genetically-alcoholic rats, UChB strain", "assay": "Anti-alcoholism activity in genetically-alcoholic rats (3 or 6 day treatment)", "assay_type": "in vivo, Wistar rats", "settings": "for lowered alcohol consumption: vs reference period", "description": "as §1\nRats were kept in individual cages at 22° C., with alternative 12 h periods of light and darkness. Besides unlimited access to food, they had ad libitum access to water and 10% (v/v) aqueous alcohol. All experiments were double-blind, and results were analyzed using common statistical methods. As changes in alcohol consumption might be influenced by the eagerness of food and/or water intake, both the consumption of food and of water were measured and analyzed. […] In each experiment the following three periods of time were considered:\na) A reference period, consisting of the three days previous to treatment. The measured consumption values were used as reference for comparison purposes.\nb) A treatment period, consisting of the three or six days during which aqueous solutions of the tested compound were intra-gastrically administered, always at the same time of the day. N,N′-bis(3-aminopropyl)cyclohexane-1,4-diamine tetramethanesulfonate monohydrate was administered at two doses, 20 mg/kg of body weight and 40 mg/kg, using aqueous solutions of the tested compound of concentrations 10 g/L and 20 g/L, respectively. Dose of 20 mg/kg was tested both for 3 consecutive days and 6 consecutive days. Dose of 40 mg/kg was tested only for 3 consecutive days.\nc) A post-treatment period, consisting of the three days immediate after the treatment period, during which measurement were taken in order to establish the duration of the effect and the reversibility of the changes."}}, "data": [{"smiles": "CS(=O)(=O)O.CS(=O)(=O)O.CS(=O)(=O)O.CS(=O)(=O)O.NCCCNC1CCC(NCCCN)CC1.O", "note": "(centres unmarked) [N,N′-bis(3-aminopropyl)cyclohexane-1,4-diamine tetramethanesulfonate monohydrate]", "values": [{"measurement": "levels of acetaldehyde in blood", "setting": "[1]; 40 mg/kg oral 2, 6, 8 and 24 h before 2.76 g/kg i.p. ethanol, blood at 0.5, 1.0, 2.0 h", "result": "did not raised levels of acetaldehyde in blood"}, {"measurement": "block of the metabolism of acetaldehyde", "setting": "[1]; conclusion from blood acetaldehyde after ethanol, disulfiram in a control test", "result": "does not block the metabolism of acetaldehyde significantly"}, {"measurement": "decrease in alcohol consumption at the end of the treatment period", "setting": "[2]", "result": 71, "unit": "%"}, {"measurement": "decrease of alcohol consumption at the end of the post-treatment period", "setting": "[3]", "result": 24, "unit": "%"}, {"measurement": "lowered alcohol consumption", "setting": "[4]; 20 mg/kg intra-gastric for 6 days, first 6 hours after administration, p<0.01", "result": 25, "unit": "%"}, {"measurement": "decrease of alcohol consumption along the post-treatment period", "setting": "[4]; 40 mg/kg for 3 days, three days after treatment", "result": "this decrease was kept along the post-treatment period"}, {"measurement": "lowered alcohol consumption", "setting": "[4]; 40 mg/kg intra-gastric for 3 days", "result": 27, "unit": "%"}, {"measurement": "decreases of alcohol consumption in the period of 6-24 h", "setting": "[4]; 6-24 h after administration, compared with first 6 h", "result": "smaller"}, {"measurement": "changes in the consumption of both food and water", "setting": "[4]; 20 or 40 mg/kg, 3 or 6 days", "result": "not significant"}, {"measurement": "overall activity as anti-alcoholism agent", "setting": "[4]; overall results of Example 4", "result": "substantial activity as anti-alcoholism agent"}]}, {"smiles": "CCN(CC)C(=S)SSC(=S)N(CC)CC", "note": "[disulfiram, tetraethylthiuram disulfide, reference compound]", "values": [{"measurement": "block of the metabolism of acetaldehyde", "setting": "[1]; rat, in vivo", "result": "contrary to what happens with disulfiram"}]}]}
